# Columns and labels:
# [1] = tested on: arthritis; assay: Case report: patient with arthritis treated for pneumonia (EXAMPLE B); format: in vivo, human; conditions: person (Subject No 1912); 625 mg twice daily intravenously for 3 days, then 8 days oral at the same dose; taking no medications at follow up
# [2] = tested on: psoriasis; assay: Case report: treatment of a patient with chronic psoriasis (EXAMPLE A); format: in vivo, human; conditions: person
# Experimental: They had chronic psoriatic lesions of both elbows, groin, left leg, right leg, and lower back. The lesions were treated in the past with coal tar and topical steroids but not UV light. They were allergic to the excipients in the steroidal topical preparations.
# After six months it had returned to the pretreatment state.
# [3] = after 625 mg twice daily for fourteen days
smiles,measurement,setting,value
"CC(=O)NC[C@H]1CN(c2ccc(N3CCOCC3)c(F)c2)C(=O)O1 [EXAMPLE 2, (S)-N-[[3-[3-Fluoro-4-(4-morpholinyl)phenyl]-2-oxo-5-oxazolidinyl]methyl]acetamide]",arthritis status stated by the patient at long term follow up,[1],arthritis was gone
same,improvement in their psoriasis,"[2]; 625 mg twice daily for fourteen days (IV five days, then orally nine days), onset as soon as they started taking the medication",immediate improvement
same,clearing of the psoriasis,"[2]; 625 mg twice daily for fourteen days, no other psoriasis treatment, from the time they took the medication",complete clearing
same,time until psoriasis gradually began to return,[2]; [3],three
same,time until psoriasis had returned to the pretreatment state,[2]; [3],six
